# Assay results: patent US20120270928A1, “MICRORNA COMPOUNDS AND METHODS FOR MODULATING MIR-21 ACTIVITY” (REGULUS THERAPEUTICS INC., priority 2011, published 2012)
# Legend:
# [1] = test system: ischemia reperfusion injury/nephrectomy (IR/Nx) model; assay: Ischemia reperfusion injury/nephrectomy (IR/Nx) model: urinary albumin to creatinine ratio; format: in vivo, mouse
# Description: An ischemia reperfusion injury/nephrectomy (IR/Nx) model is created in the mouse through temporary unilateral clamping of an artery in one kidney, which leads to tubule damage, inflammation, and fibrosis, followed by removal of the second kidney at a later timepoint. In this model, the acute kidney dysfunction phase is useful to test candidate agents for the treatment of acute kidney injury (i.e. up to about the first 5 days), and the later phases of kidney dysfunction are useful to model chronic fibrosis (i.e. after about the first 5 days).
# Unilateral IR was induced for a period of 30 minutes. Treatment groups were as follows: sham IR procedure; IR with PBS administered subcutaneously; IR with mismatched control 25109 administered subcutaneously at a dose of 20 mg/kg; IR with anti-miR-21 compound 25070 administered subcutaneously at a dose of 20 mg/kg; and IR with anti-miR-21 compound 25923 administered subcutaneously at a dose of 20 mg/kg. PBS or anti-miR was administered on days 2, 3, 4, and 8 following IR. On day 8, the healthy kidney was removed by nephrectomy from each animal, and animals were sacrificed on day 9. Just prior to sacrifice, urine was collected by direct bladder puncture.
# Urinary albumin to creatinine ratio was measured in the urine from each mouse. […] The geometric mean of the albumin to creatinine ratio in each group of mice was 16 μgAlb/mgCr (nephrectomy-only control), 127 μgAlb/mgCr (IR/Nx, PBS control), 140 μgAlb/mgCr (IR/Nx, 25109 control), 40 μgAlb/mgCr (IR/Nx, 25070), and 31 μgAlb/mgCr (IR/Nx, 25923). Blood urea nitrogen and serum creatinine levels were similar across all IR/Nx mice, and were elevated relative to nephrectomy-only control mice (data not shown).
# [2] = Ex vivo liver homogenate stability assay (HPLC-TOF MS); conditions: 5 μM oligonucleotide in liver homogenate (50 mg tissue per ml), 24 hours at 37° C.
# [3] = In vivo stability of compound in kidney tissue after administration to mice; conditions: 7 days post-injection
sequence,measurement,setting,value
"AECSATCSAGTCSTGAUSAAGCSTAE (ACATCAGTCTGATAAGCTA; modified nucleosides, phosphorothioate linkages, chemistry not fully specified) [Compound 25070]",reduction in urinary albumin to creatinine ratio (significance),"[1]; 20 mg/kg subcutaneously on days 2, 3, 4, and 8",statistically significant reductions
same,geometric mean of the urinary albumin to creatinine ratio,"[1]; 20 mg/kg subcutaneously on days 2, 3, 4, and 8, urine on day 9",40 μgAlb/mgCr
same,compound lacking the 3′-terminal nucleoside,[2],about 27%
same,compound present as the full-length compound,[2],about 58%
same,compound present in kidney tissue lacking the 3′-terminal nucleoside,[3],about 50%
